Reference: publication PMC8116805, “Inhibition of the Proliferation of Human Lung Fibroblasts by Prostacyclin Receptor Agonists is Linked to a Sustained cAMP Signal in the Nucleus” (Frontiers in Pharmacology, 2021)

Columns and labels:
[1] = molecular target: T1, prostacyclin receptor (IPR) (Homo sapiens, UniProt P43119); experiment: cAMP accumulation (LANCE) in human lung fibroblasts, endogenous receptor; partial agonist; format: cell-based
T1 construct: gene PTGIR

[2] = molecular target: T1, prostacyclin receptor (IPR); experiment: cAMP accumulation (LANCE) in human lung fibroblasts, endogenous receptor; about […] blocked by IPR antagonist RO-1138452; format: cell-based

T1 sequence (P43119 1-383): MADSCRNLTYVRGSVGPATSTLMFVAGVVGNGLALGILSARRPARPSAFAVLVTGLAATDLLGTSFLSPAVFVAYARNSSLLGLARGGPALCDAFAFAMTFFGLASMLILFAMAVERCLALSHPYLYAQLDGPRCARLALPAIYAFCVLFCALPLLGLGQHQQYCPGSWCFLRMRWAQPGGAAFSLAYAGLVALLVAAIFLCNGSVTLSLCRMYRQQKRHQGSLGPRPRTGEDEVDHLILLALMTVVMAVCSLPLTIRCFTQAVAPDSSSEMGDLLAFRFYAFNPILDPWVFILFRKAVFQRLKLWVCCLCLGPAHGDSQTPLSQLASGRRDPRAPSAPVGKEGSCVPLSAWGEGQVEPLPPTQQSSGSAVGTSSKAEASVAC

Compound: CC(C)N(CCCCOCC(=O)O)c1cnc(-c2ccccc2)c(-c2ccccc2)n1 [MRE-269, {4-[(5,6-Diphenylpyrazin-2-yl)(isopropyl)amino]butoxy}acetic Acid]
- EC50 [1]: 200 nM

Compound: CCCCC[C@H](O)CC[C@@H]1[C@H]2Cc3cccc(OCC(=O)O)c3C[C@H]2C[C@H]1O [treprostinil]
- EC50 [2]: 64 nM
